The source of these data is ChEMBL document CHEMBL5291721, “A preclinical secondary pharmacology resource illuminates target-adverse drug reaction associations of marketed drugs” (Nat Commun, 2023).

Experiment [1] deals with T1, Alpha-1A adrenergic receptor (Homo sapiens, UniProt P35348).
T1 sequence (P35348 whole entry): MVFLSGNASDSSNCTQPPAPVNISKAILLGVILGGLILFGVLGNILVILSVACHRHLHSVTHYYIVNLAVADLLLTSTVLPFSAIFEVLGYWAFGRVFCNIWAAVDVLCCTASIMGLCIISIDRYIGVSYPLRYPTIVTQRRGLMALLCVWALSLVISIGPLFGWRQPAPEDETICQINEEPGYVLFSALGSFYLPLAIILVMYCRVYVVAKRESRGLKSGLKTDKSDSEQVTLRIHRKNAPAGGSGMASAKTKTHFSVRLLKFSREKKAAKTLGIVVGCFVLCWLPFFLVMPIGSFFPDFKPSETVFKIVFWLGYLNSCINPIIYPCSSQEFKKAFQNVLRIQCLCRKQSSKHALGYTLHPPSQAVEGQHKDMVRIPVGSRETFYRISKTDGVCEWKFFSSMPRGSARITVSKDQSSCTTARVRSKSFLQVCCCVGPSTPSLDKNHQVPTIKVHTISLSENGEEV
The format is functional, cell-based.

Experiment [2] has as its target T2, Amine oxidase [flavin-containing] A (Homo sapiens, UniProt P21397).
T2 sequence (P21397 whole entry): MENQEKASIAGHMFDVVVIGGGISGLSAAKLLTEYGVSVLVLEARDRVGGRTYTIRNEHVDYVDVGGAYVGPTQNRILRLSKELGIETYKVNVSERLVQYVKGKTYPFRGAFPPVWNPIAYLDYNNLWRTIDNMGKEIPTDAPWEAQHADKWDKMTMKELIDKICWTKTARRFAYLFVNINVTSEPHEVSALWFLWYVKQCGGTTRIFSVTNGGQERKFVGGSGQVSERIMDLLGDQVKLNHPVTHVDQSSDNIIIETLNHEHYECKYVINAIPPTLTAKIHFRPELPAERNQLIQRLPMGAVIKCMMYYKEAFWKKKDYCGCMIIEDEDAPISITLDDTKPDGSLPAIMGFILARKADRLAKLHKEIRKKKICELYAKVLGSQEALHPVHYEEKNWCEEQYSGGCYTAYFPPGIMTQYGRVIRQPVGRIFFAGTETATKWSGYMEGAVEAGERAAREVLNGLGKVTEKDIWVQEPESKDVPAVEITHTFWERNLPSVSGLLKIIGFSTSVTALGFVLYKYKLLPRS
In kind it is functional.

Experiment [3] deals with cGMP-inhibited 3',5'-cyclic phosphodiesterase 3A (Homo sapiens, UniProt Q14432). The format is functional.
For experiment [4], the target named is Prostaglandin G/H synthase 1 (Homo sapiens, UniProt P23219). The format is functional.
The target in experiment [5] is Sodium-dependent dopamine transporter (Homo sapiens, UniProt Q01959).
Also: assay procedure not described here.

Chain of Sodium-dependent dopamine transporter (Q01959 whole entry): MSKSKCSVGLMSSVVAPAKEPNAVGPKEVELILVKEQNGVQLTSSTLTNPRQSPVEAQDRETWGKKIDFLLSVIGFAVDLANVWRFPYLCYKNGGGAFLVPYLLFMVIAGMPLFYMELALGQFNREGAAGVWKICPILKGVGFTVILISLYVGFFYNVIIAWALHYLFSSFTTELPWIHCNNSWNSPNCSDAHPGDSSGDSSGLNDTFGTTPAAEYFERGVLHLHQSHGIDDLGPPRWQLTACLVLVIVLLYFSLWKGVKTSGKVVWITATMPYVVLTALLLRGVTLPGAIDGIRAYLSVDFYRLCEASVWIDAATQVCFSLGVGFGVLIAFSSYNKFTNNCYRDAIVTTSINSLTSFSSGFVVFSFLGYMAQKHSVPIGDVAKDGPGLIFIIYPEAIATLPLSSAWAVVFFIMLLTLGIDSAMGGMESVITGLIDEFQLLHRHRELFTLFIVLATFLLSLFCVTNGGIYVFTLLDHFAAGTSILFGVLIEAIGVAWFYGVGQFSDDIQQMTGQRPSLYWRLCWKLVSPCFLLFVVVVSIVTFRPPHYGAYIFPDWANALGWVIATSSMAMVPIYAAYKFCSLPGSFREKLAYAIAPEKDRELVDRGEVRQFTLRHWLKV
Chain of Prostaglandin G/H synthase 1 (P23219 whole entry): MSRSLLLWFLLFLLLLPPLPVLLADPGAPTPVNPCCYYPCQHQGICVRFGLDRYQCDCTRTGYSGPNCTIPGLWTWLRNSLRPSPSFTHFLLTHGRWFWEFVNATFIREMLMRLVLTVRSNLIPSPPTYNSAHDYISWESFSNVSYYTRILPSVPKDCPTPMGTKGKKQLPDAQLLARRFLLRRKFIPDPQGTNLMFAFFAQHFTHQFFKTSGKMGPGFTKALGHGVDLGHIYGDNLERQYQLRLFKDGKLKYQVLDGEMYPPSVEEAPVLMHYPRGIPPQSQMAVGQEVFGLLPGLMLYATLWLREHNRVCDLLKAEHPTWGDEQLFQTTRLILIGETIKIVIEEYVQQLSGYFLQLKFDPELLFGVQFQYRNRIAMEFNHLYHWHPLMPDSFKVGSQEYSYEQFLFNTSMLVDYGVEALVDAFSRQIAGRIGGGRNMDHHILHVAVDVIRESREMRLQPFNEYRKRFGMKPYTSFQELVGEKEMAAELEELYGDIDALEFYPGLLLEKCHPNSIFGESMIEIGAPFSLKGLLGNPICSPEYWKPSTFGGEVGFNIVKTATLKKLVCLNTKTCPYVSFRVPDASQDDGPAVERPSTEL
Chain of cGMP-inhibited 3',5'-cyclic phosphodiesterase 3A (Q14432 whole entry): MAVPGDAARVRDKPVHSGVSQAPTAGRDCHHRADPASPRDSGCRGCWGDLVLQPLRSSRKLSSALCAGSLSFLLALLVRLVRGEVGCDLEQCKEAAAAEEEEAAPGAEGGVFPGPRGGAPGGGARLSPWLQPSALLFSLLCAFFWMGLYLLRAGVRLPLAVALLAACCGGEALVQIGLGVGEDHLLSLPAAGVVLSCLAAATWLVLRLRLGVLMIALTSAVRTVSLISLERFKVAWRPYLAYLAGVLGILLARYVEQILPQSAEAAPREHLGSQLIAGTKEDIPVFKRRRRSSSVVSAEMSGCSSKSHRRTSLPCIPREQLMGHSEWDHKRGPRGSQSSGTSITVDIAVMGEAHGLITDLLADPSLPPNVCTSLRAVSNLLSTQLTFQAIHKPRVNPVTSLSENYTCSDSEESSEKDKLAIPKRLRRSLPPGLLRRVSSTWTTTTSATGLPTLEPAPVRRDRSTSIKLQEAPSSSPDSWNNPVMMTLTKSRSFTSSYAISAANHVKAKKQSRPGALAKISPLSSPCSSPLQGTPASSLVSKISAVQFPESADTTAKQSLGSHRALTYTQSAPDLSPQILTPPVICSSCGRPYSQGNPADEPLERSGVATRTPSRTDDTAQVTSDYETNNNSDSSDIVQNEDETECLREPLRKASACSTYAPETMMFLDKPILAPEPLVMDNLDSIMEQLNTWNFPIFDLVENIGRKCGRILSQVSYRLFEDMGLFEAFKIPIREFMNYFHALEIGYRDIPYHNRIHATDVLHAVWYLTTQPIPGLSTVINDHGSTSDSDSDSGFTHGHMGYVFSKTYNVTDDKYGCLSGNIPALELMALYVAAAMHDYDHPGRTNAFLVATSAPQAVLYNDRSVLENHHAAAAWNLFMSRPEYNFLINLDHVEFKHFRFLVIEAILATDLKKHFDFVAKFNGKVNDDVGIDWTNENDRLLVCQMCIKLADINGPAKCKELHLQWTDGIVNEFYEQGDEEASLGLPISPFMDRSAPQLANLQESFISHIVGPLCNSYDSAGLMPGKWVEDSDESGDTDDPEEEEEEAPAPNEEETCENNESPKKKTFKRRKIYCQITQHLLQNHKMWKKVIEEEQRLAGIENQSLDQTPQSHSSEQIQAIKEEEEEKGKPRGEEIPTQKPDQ

`Cc1cc(N)c2ccccc2[n+]1CCCCCCCCCC[n+]1c(C)cc(N)c2ccccc21`: the AC50 (as a rule, the midpoint of the concentration-response curve, whichever way the signal moves) in experiment [1] amounted to 23.9 µM; in experiment [2] it was 16.8 µM; in experiment [3], 10 µM; in experiment [4] it was 14.8 µM; in experiment [5] it was 0.89 µM.

For `C=CCSCC1Nc2cc(Cl)c(S(N)(=O)=O)cc2S(=O)(=O)N1` (stereo not given) [ALTHIAZIDE], the AC50 in experiment [1], in experiment [2], in experiment [3], in experiment [4] and in experiment [5] was more than 30 µM each time.

Take `CCN(CCCc1ccccc1)CCCc1ccccc1` [ALVERINE]: the concentration at half-maximal activity (AC50) in experiment [1] is more than 30 µM; in experiment [2] it was more than 30 µM; in experiment [3], more than 30 µM; in experiment [4], more than 30 µM; in experiment [5], 0.481 µM.

As for `COc1cc(N2CCC(N3CCN(C)CC3)CC2)ccc1Nc1ncc(Cl)c(Nc2ccccc2P(C)(C)=O)n1` [BRIGATINIB], the AC50 in experiment [1], in experiment [2], in experiment [3], in experiment [4] and in experiment [5] was more than 30 µM in each case.

As to `CN(C)CCOC(c1ccccc1)c1ccc(Br)cc1` (stereo not given) [BROMODIPHENHYDRAMINE], the concentration at half-maximal activity (AC50) is more than 30 µM in experiment [1]; more than 30 µM in experiment [2]; more than 30 µM in experiment [3]; more than 30 µM in experiment [4]; 0.757 µM in experiment [5].

Consider `CC(=O)O[C@]1(C(C)=O)CC[C@H]2[C@@H]3C=C(Cl)C4=CC(=O)CC[C@]4(C)[C@H]3CC[C@@]21C` [CHLORMADINONE ACETATE], for which the concentration at half-maximal activity (AC50) in experiment [1], in experiment [2], in experiment [3], in experiment [4] and in experiment [5] was more than 30 µM throughout.

For `NC(=O)OCC(O)COc1ccc(Cl)cc1` (stereo not given) [CHLORPHENESIN CARBAMATE], the AC50 in experiment [1], in experiment [2], in experiment [3], in experiment [4] and in experiment [5] was more than 30 µM throughout.

For `CCN(CC)C(=S)S` [DITIOCARB], the AC50 in experiment [1], in experiment [2], in experiment [3], in experiment [4] and in experiment [5] was more than 30 µM in each case.

Regarding `CCC(=O)O[C@]1(C(=O)CCl)[C@@H](C)C[C@H]2[C@@H]3C[C@H](F)C4=CC(=O)C=C[C@]4(C)[C@@]3(F)[C@@H](O)C[C@@]21C` [HALOBETASOL PROPIONATE], the AC50 in experiment [1], in experiment [2], in experiment [3], in experiment [4] and in experiment [5] was more than 30 µM in each case.

For the molecule `CC(N)Cc1ccc(O)cc1` (stereo not given) [HYDROXYAMPHETAMINE], the AC50 in experiment [1], in experiment [2], in experiment [3], in experiment [4] and in experiment [5] was more than 30 µM throughout.

In the case of `Cc1cc(NC(=O)C2=C(O)c3ccccc3S(=O)(=O)N2C)no1` [ISOXICAM], the AC50 in experiment [1], in experiment [2], in experiment [3], in experiment [4] and in experiment [5] was more than 30 µM in each case.

As to `COc1cc2c(cc1OC)CC(=O)N(CCCN(C)C[C@H]1Cc3cc(OC)c(OC)cc31)CC2` [IVABRADINE], the AC50 in experiment [1], in experiment [2], in experiment [3], in experiment [4] and in experiment [5] was more than 30 µM throughout.

In the case of `CC(C)(C)NC[C@H](O)COc1cccc2c1CCCC2=O` [LEVOBUNOLOL], the AC50 in experiment [1], in experiment [2], in experiment [3], in experiment [4] and in experiment [5] was more than 30 µM in each case.

For `Cc1c(N(C)CS(=O)(=O)O)c(=O)n(-c2ccccc2)n1C` [METAMIZOLE], the AC50 in experiment [1], in experiment [2], in experiment [3], in experiment [4] and in experiment [5] was more than 30 µM each time.

Regarding `CN1C(=O)/C(=N\NC(N)=S)c2ccccc21` [METHISAZONE], the half-maximal activity concentration (AC50) in experiment [1] was more than 30 µM; in experiment [2], more than 30 µM; in experiment [3] it was more than 3 µM; in experiment [4], more than 10 µM; in experiment [5], more than 30 µM.

`COC(=O)c1ccc(O)cc1` [METHYLPARABEN]: the AC50 in experiment [1], in experiment [2], in experiment [3], in experiment [4] and in experiment [5] was more than 30 µM each time.

`CCCc1nc(C(C)(C)O)c(C(=O)O)n1Cc1ccc(-c2ccccc2-c2nnn[nH]2)cc1` [OLMESARTAN]: the AC50 in experiment [1], in experiment [2], in experiment [3], in experiment [4] and in experiment [5] was more than 30 µM each time.

For the molecule `NCC(CC(=O)O)c1ccccc1` (stereo not given) [PHENIBUT], the AC50 in experiment [1], in experiment [2], in experiment [3], in experiment [4] and in experiment [5] was more than 30 µM in each case.

As for `Cc1ncc(COP(=O)(O)O)c(C=O)c1O` [PYRIDOXAL PHOSPHATE ANHYDROUS], the half-maximal activity concentration (AC50) in experiment [1] is more than 30 µM; in experiment [2], more than 30 µM; in experiment [3], more than 30 µM; in experiment [4], 8.66 µM; in experiment [5], more than 30 µM.

In the case of `COc1ccc(CN(CCN(C)C)c2ccccn2)cc1` [PYRILAMINE], the AC50 is more than 30 µM in experiment [1]; more than 30 µM in experiment [2]; more than 30 µM in experiment [3]; more than 30 µM in experiment [4]; 2.41 µM in experiment [5].

For the molecule `c1ccc2c(c1)CCc1ccccc1N2C1CN2CCC1CC2` (stereo not given) [QUINUPRAMINE], the AC50 in experiment [1] was more than 30 µM; in experiment [2] it was more than 30 µM; in experiment [3], more than 30 µM; in experiment [4] it was more than 30 µM; in experiment [5], 2.62 µM.

Take `C[C@H](Cc1cc2c(c(C(N)=O)c1)N(CCCO)CC2)NCCOc1ccccc1OCC(F)(F)F` [SILODOSIN]: the AC50 in experiment [1] is more than 30 µM; in experiment [2], more than 30 µM; in experiment [3] it was more than 30 µM; in experiment [4] it was more than 30 µM; in experiment [5] it was 18.6 µM.

Regarding `CC1=CCC(C(C)(C)O)CC1O` (stereo not given) [SOBREROL], the AC50 in experiment [1] was more than 30 µM; in experiment [2], more than 30 µM; in experiment [3], more than 10 µM; in experiment [4] it was more than 30 µM; in experiment [5] it was more than 30 µM.

In the case of `CCOC(=O)N1CSC[C@H]1C(=O)O` [TELMESTEINE], the AC50 in experiment [1], in experiment [2], in experiment [3], in experiment [4] and in experiment [5] was more than 30 µM each time.
